Laboratory results published in ChEMBL document CHEMBL3091452, “A prodrug approach toward cancer-related carbonic anhydrase inhibition” (J Med Chem, 2013).

Key:
Carbonic anhydrase 9 = Carbonic anhydrase 9 (Homo sapiens, UniProt Q16790)
Description: Inhibition of human carbonic anhydrase 9 by stopped-flow CO2 hydration assay

Carbonic anhydrase 12 = Carbonic anhydrase 12 (Homo sapiens, UniProt O43570)
Description: Inhibition of human carbonic anhydrase 12 by stopped-flow CO2 hydration assay

Carbonic anhydrase 14 = Carbonic anhydrase 14 (Homo sapiens, UniProt Q9ULX7); assay: Inhibition of human carbonic anhydrase 14 by stopped-flow CO2 hydration assay
[1] = Permeability of the compound in human Caco2 cells assessed as mass balance in diffusion chamber at 8 uM after 90 mins; assay type: ADME, cell-based; conditions: Caco-2, read-out: permeability
Carbonic anhydrase 2 = Carbonic anhydrase 2 (Homo sapiens, UniProt P00918)
Description: Inhibition of human carbonic anhydrase 2 by stopped-flow CO2 hydration assay

Albumin = Albumin (Homo sapiens, UniProt P02768); assay: Binding affinity to human serum albumin by chromatographic analysis; assay type: ADME; conditions: isolated protein
Carbonic anhydrase 1 = Carbonic anhydrase 1 (Homo sapiens, UniProt P00915)
Description: Inhibition of human carbonic anhydrase 1 by stopped-flow CO2 hydration assay

[2] = Degradation half life in human plasma at 5000 ng/mL by UPLC-MS analysis; assay type: ADME, cell-free
[3] = Intrinsic clearance in human liver microsomes at 1 uM after 2 to 60 mins by LCMS analysis in absence of NADPH; assay type: ADME; conditions: read-out: CLH
[4] = Solubility of the compound in HEPES buffer at pH 7.4; assay type: physicochemical
[5] = Intrinsic clearance in human liver microsomes at 1 uM after 2 to 60 mins by LCMS analysis in presence of NADPH; assay type: ADME; conditions: read-out: CLH
[6] = Permeability of the compound in human Caco2 cells assessed as mass balance in diffusion chamber at 15 uM after 90 mins; assay type: ADME, cell-based; conditions: Caco-2, read-out: permeability
[7] = Permeability of the compound in human Caco2 cells assessed as mass balance in diffusion chamber at 20 uM after 90 mins; assay type: ADME, cell-based; conditions: Caco-2, read-out: permeability

Sequence of Albumin (P02768 whole entry): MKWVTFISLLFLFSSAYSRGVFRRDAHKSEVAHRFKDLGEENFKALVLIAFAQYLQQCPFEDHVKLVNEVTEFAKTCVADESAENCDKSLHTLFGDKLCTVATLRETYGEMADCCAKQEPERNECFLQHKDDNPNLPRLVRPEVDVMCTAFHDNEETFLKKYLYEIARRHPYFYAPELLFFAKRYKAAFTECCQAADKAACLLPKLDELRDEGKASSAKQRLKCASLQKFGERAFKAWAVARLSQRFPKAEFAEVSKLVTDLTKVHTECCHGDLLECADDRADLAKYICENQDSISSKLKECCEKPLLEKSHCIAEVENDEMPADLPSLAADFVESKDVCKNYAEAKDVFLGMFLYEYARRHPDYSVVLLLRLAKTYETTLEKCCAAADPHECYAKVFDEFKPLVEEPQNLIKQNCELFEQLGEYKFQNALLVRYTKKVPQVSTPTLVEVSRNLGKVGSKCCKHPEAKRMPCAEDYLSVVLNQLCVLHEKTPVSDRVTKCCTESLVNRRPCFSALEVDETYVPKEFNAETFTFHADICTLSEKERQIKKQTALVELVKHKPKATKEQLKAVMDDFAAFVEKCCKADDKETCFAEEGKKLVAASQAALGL
Sequence of Carbonic anhydrase 12 (O43570 whole entry): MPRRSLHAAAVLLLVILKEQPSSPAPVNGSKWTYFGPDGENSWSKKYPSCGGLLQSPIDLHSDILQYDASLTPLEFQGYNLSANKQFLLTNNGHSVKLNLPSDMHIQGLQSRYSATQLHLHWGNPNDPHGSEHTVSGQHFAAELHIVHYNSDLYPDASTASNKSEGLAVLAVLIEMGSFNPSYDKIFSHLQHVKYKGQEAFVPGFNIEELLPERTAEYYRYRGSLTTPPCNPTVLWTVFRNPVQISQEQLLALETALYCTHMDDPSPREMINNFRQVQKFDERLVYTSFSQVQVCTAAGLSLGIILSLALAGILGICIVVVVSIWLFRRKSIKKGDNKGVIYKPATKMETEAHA
Sequence of Carbonic anhydrase 14 (Q9ULX7 whole entry, the tested form may be a part): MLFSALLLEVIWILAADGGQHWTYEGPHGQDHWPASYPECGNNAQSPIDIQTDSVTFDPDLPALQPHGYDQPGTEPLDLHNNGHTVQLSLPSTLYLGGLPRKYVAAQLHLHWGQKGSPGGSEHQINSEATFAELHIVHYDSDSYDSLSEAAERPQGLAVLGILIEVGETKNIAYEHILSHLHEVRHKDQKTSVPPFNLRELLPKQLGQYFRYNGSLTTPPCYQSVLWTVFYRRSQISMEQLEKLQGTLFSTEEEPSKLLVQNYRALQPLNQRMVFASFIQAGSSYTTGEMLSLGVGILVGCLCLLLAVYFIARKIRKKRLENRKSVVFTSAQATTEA
Sequence of Carbonic anhydrase 1 (P00915 whole entry): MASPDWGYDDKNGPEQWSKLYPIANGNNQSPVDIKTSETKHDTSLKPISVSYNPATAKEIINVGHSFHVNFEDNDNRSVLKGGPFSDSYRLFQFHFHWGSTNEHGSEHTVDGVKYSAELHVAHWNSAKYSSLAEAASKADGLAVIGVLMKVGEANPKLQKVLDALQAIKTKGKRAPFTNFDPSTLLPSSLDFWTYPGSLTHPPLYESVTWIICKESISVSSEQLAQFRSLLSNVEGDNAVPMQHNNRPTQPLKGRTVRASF

Compound	Ki (Carbonic anhydrase 9) [nM]	Ki (Carbonic anhydrase 12) [nM]	Ki (Carbonic anhydrase 14) [nM]	Ki (Carbonic anhydrase 2) [nM]	Ki (Carbonic anhydrase 1) [nM]	further results
CCC(=O)OC[C@H]1O[C@@H](n2cc(-c3cccc(S(N)(=O)=O)c3)nn2)[C@H](OC(=O)CC)[C@@H](OC(=O)CC)[C@H]1OC(=O)CC	126	–	–	–	–	–
CCCC(=O)OC[C@H]1O[C@@H](n2cc(-c3cccc(S(N)(=O)=O)c3)nn2)[C@H](OC(=O)CCC)[C@@H](OC(=O)CCC)[C@H]1OC(=O)CCC	69.2	–	–	–	–	–
CCC(=O)OC[C@H]1O[C@@H](n2cc(-c3ccc(S(N)(=O)=O)cc3)nn2)[C@H](OC(=O)CC)[C@@H](OC(=O)CC)[C@@H]1OC(=O)CC	475	7.4	256	71.1	2020	recovery at 1.5 h, 8 µM [1]: 47%; Activity (Albumin): 77%; half-life at 5000 ng/mL [2]: 3 min
CCCC(=O)OC[C@H]1O[C@@H](n2cc(-c3cccc(S(N)(=O)=O)c3)nn2)[C@H](OC(=O)CCC)[C@@H](OC(=O)CCC)[C@@H]1OC(=O)CCC	583	–	–	–	–	–
NS(=O)(=O)c1ccc(-c2cn([C@@H]3O[C@H](CO)[C@H](O)[C@H](O)[C@H]3O)nn2)cc1	126	36.3	20.1	6.7	7950	–
CCC(=O)OC[C@H]1O[C@@H](n2cc(-c3ccc(S(N)(=O)=O)cc3)nn2)[C@H](OC(=O)CC)[C@@H](OC(=O)CC)[C@H]1OC(=O)CC	5.1	5.4	10.9	8.1	78.8	–
C#Cc1cccc(S(N)(=O)=O)c1	65.7	–	–	–	–	–
CC(=O)OC[C@H]1O[C@@H](n2cc(-c3cccc(S(N)(=O)=O)c3)nn2)[C@H](OC(C)=O)[C@@H](OC(C)=O)[C@H]1OC(C)=O	943	–	–	–	–	–
CCCCC(=O)OC[C@H]1O[C@@H](n2cc(-c3ccc(S(N)(=O)=O)cc3)nn2)[C@H](OC(=O)CCCC)[C@@H](OC(=O)CCCC)[C@H]1OC(=O)CCCC	–	31	67.3	73.6	2130	–
CC(C)CC(=O)OC[C@H]1O[C@@H](n2cc(-c3ccc(S(N)(=O)=O)cc3)nn2)[C@H](OC(=O)CC(C)C)[C@@H](OC(=O)CC(C)C)[C@@H]1OC(=O)CC(C)C	426	52	40.1	440	9440	microsomal CLint at 1 µM [3]: < 7 µL/min/mg; solubility [4]: Insoluble; microsomal CLint at 1 µM [5]: < 7 µL/min/mg; Activity (Albumin): > 99%; half-life at 5000 ng/mL [2]: > 250 min
CC(C)CC(=O)OC[C@H]1O[C@@H](n2cc(-c3cccc(S(N)(=O)=O)c3)nn2)[C@H](OC(=O)CC(C)C)[C@@H](OC(=O)CC(C)C)[C@@H]1OC(=O)CC(C)C	724	–	–	–	–	–
CC(C)CC(=O)OC[C@H]1O[C@@H](n2cc(-c3ccc(S(N)(=O)=O)cc3)nn2)[C@H](OC(=O)CC(C)C)[C@@H](OC(=O)CC(C)C)[C@H]1OC(=O)CC(C)C	374	23.3	15.9	37.9	3210	–
CC(C)CC(=O)OC[C@H]1O[C@@H](n2cc(-c3cccc(S(N)(=O)=O)c3)nn2)[C@H](OC(=O)CC(C)C)[C@@H](OC(=O)CC(C)C)[C@H]1OC(=O)CC(C)C	254	–	–	–	–	–
CC(=O)OC[C@H]1O[C@@H](n2cc(-c3ccc(S(N)(=O)=O)cc3)nn2)[C@H](OC(C)=O)[C@@H](OC(C)=O)[C@@H]1OC(C)=O	–	67.1	104	–	–	recovery at 1.5 h, 15 µM [6]: 81%; Activity (Albumin): 30%; half-life at 5000 ng/mL [2]: 7 min
CCCC(=O)OC[C@H]1O[C@@H](n2cc(-c3ccc(S(N)(=O)=O)cc3)nn2)[C@H](OC(=O)CCC)[C@@H](OC(=O)CCC)[C@H]1OC(=O)CCC	–	9.5	35.6	6.9	257	–
CC(=O)OC[C@H]1O[C@@H](n2cc(-c3cccc(S(N)(=O)=O)c3)nn2)[C@H](OC(C)=O)[C@@H](OC(C)=O)[C@@H]1OC(C)=O	480	–	–	–	–	–
NS(=O)(=O)c1cccc(-c2cn([C@@H]3O[C@H](CO)[C@H](O)[C@H](O)[C@H]3O)nn2)c1	590	–	–	–	–	–
C#Cc1ccc(S(N)(=O)=O)cc1	54	–	–	–	–	–
CC(=O)OC[C@H]1O[C@@H](n2cc(-c3ccc(S(N)(=O)=O)cc3)nn2)[C@H](OC(C)=O)[C@@H](OC(C)=O)[C@H]1OC(C)=O	–	9.7	15.8	–	–	–
CCC(=O)OC[C@H]1O[C@@H](n2cc(-c3cccc(S(N)(=O)=O)c3)nn2)[C@H](OC(=O)CC)[C@@H](OC(=O)CC)[C@@H]1OC(=O)CC	874	–	–	–	–	–
CCCCC(=O)OC[C@H]1O[C@@H](n2cc(-c3cccc(S(N)(=O)=O)c3)nn2)[C@H](OC(=O)CCCC)[C@@H](OC(=O)CCCC)[C@H]1OC(=O)CCCC	800	–	–	–	–	–
CCCC(=O)OC[C@H]1O[C@@H](n2cc(-c3ccc(S(N)(=O)=O)cc3)nn2)[C@H](OC(=O)CCC)[C@@H](OC(=O)CCC)[C@@H]1OC(=O)CCC	633	50.2	119	76.3	1800	solubility [4]: Insoluble; Activity (Albumin): 94%; half-life at 5000 ng/mL [2]: 25 min
CCCCC(=O)OC[C@H]1O[C@@H](n2cc(-c3ccc(S(N)(=O)=O)cc3)nn2)[C@H](OC(=O)CCCC)[C@@H](OC(=O)CCCC)[C@@H]1OC(=O)CCCC	–	52.7	176	573	9230	microsomal CLint at 1 µM [3]: < 7 µL/min/mg; solubility [4]: Insoluble; microsomal CLint at 1 µM [5]: < 7 µL/min/mg; Activity (Albumin): > 99%; half-life at 5000 ng/mL [2]: > 250 min
NS(=O)(=O)c1ccc(-c2cn([C@@H]3O[C@H](CO)[C@@H](O)[C@H](O)[C@H]3O)nn2)cc1	–	40.1	50.3	–	–	microsomal CLint at 1 µM [3]: < 7 µL/min/mg; microsomal CLint at 1 µM [5]: < 7 µL/min/mg; recovery at 1.5 h, 20 µM [7]: 100%; Activity (Albumin): 13%; half-life at 5000 ng/mL [2]: > 250 min
CCCCC(=O)OC[C@H]1O[C@@H](n2cc(-c3cccc(S(N)(=O)=O)c3)nn2)[C@H](OC(=O)CCCC)[C@@H](OC(=O)CCCC)[C@@H]1OC(=O)CCCC	402	–	–	–	–	–
